Reference: PMC8583776, “PD-L1 Inhibitors: Different Classes, Activities, and Mechanisms of Action” (International Journal of Molecular Sciences, 2021)
Where two headings read alike, the source gives them in different places.

Columns and labels:
[1] = target: T1, PD-1/PD-L1 immune checkpoint (Homo sapiens, UniProt Q9NZQ7); conditions: cited from earlier work; for ICB Assay %RLUmax: % of activation by therapeutic anti-PD-L1 antibody; for EC50: read-out: ICB Assay EC50
T1 construct: host or cells: CHO-K1 (CHO/TCRAct/PD-L1) cells and Jurkat Effector Cells

hPD-1/hPD-L1 complex [2] = target: T2, hPD-1/hPD-L1 complex (Homo sapiens, UniProt Q9NZQ7); conditions: cited from earlier work
T2 construct: Tag1 or Tag2 (kit tag, identity not disclosed); purchased CisBio (Codolet, France)

PD-L1 = system: PD-L1; design: method as in PMID 33619272; conditions: cited from earlier work
mPD-L1 = system: mPD-L1; design: method as in PMID 33437940; conditions: cited from earlier work; for Target Specificity mPD-L1: mouse PD-L1
MC38-hPD-L1 tumor model = system: MC38-hPD-L1 tumor model; design: method as in PMID 33619272; conditions: humanized double knock-in mice for PD-1 and PD-L1; cited from earlier work
human PD-L1 [3] = system: human PD-L1; design: method as in PMID 29069777, PMID 28613862, PMID 27083005, PMID 33619272; conditions: in vitro PD-L1 dimerization in the presence of the molecule; cited from earlier work
hPD-L1 = system: hPD-L1; design: method as in PMID 33437940; conditions: cited from earlier work
PD-1 = conditions: cited from earlier work
mouse T cells = system: mouse T cells; design: method as in PMID 31374878; conditions: cited from earlier work
PD-1/PD-L1 complex = conditions: various assays; cited from earlier work
human PBMCs = system: human PBMCs; design: method as in PMID 31374878; conditions: cited from earlier work
human PD-L1 [4] = conditions: cited from earlier work
hPD-1/hPD-L1 complex [5] = target: T2, hPD-1/hPD-L1 complex; experiment: HTRF assay of PD-1/PD-L1 complex formation blockade; type: binding; conditions: Figure A2, 5 nM hPD-L1, 50 nM hPD-1
Excerpt: We performed a comparison of the in vitro targeting of the PD-1/PD-L1 immune checkpoint with molecules selected from various classes, including small molecules, macrocyclic peptides, and monoclonal antibodies. For this, two standardized and popular techniques used in the available literature were applied: the protein-based Homogeneous Time-Resolved Fluorescence (HTRF) method and the cell-based Immune Checkpoint Blockade (ICB) assay. Using these methods, three parameters describing the in vitro potency of the tested compounds were determined: (i) IC50 values of the blockade of PD-1/PD-L1 complex formation (from HTRF); (ii) EC50 values of the reactivation of the effector T cells blocked with PD-L1 (from ICB); and (iii) maximal activation levels of the effector T cells, calculated as the % of the activation in the presence of therapeutic anti-PD-L1 antibody atezolizumab or durvalumab. […]
The certified CisBio (Codolet, France) HTRF assay was used to determine the IC50 values of the compounds according to the manufacturer’s guidelines. […] IC50 of tested compounds was determined for two individual dilution series unless stated otherwise. After mixing, the plate was left for 2 h incubation at room temperature and later measured using Tecan Spark 20M multimode microplate reader (Tecan, Männedorf, Switzerland). […]

[6] = other laboratories, read-out: HTRF IC50 Other
[7] = authors' laboratory, read-out: HTRF IC50 Ours

T1 sequence (Q9NZQ7 19-290): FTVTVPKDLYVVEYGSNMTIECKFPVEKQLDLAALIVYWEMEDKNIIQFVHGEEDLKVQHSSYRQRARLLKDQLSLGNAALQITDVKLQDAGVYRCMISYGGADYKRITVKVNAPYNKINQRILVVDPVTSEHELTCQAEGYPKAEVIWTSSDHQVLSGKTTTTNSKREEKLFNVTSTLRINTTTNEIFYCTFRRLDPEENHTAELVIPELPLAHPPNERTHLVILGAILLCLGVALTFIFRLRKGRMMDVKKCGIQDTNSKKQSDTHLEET
T2 sequence (Q9NZQ7 19-238 limits assumed, one chain of several): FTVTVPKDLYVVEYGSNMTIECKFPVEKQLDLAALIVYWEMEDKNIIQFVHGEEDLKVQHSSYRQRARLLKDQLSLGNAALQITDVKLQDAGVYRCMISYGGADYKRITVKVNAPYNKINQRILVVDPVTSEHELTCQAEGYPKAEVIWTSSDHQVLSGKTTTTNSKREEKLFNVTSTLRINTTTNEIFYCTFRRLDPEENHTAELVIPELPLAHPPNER

For nivolumab: therapeutic antibody, the “ICB Assay %RLUmax” value [1] is given as 100%, the EC50 [1] is given as 1.27 nM and the IC50 (hPD-1/hPD-L1 complex [2]; [6]) is given as 0.2 nM.
In the case of “p57: macrocyclic peptide PD-L1 inhibitor disclosed by Bristol Myers Squibb”, the EC50 [1] is listed as 566 nM and the IC50 (hPD-1/hPD-L1 complex [2]; [6]) is listed as 9 nM.
In the case of `COc1cc(-c2cccc(-c3cccc(-c4ccc(CN5CC(C(=O)O)C5)c(OC)c4)c3C)c2C)ccc1CN1CC(C(=O)O)C1` [C13], the “ICB Assay %RLUmax” value [1] is listed as 100%, the EC50 [1] is listed as 104 nM and the IC50 (hPD-1/hPD-L1 complex [2]; [6]) is listed as 4.23 nM.
For “p71: macrocyclic peptide PD-L1 inhibitor disclosed by Bristol Myers Squibb”, the EC50 [1] is given as 293 nM and the IC50 (hPD-1/hPD-L1 complex [2]; [6]) is given as 7 nM.
For `Cc1c(NC(=O)c2ccc(CNCCO)cn2)cccc1-c1cccc(NC(=O)c2ccc(CNCCO)cn2)c1C` [comp. A], the “dimerization of PD-L1 in a cellular context” value (PD-L1) is listed as “dimerization of PD-L1”, the “ICB Assay %RLUmax” value [1] is listed as 86.3% and the EC50 [1] is listed as 18.9 nM. For the same molecule, the “Target Specificity mPD-L1” value (mPD-L1) was “No”, the in vivo bioactivity (MC38-hPD-L1 tumor model) was “succeeded in showing the bioactivity” and the IC50 (hPD-1/hPD-L1 complex [2]; [6]) was 0.4 nM.
For “p101: macrocyclic peptide PD-L1 inhibitor disclosed by Bristol Myers Squibb (FFIVIRDRVFRCG)”, the EC50 [1] is given as 7500 nM, the IC50 (hPD-1/hPD-L1 complex [2]; [7]) is given as 27.8 nM and the IC50 (hPD-1/hPD-L1 complex [2]; [6]) is given as 120 nM.
In the case of `CC(=O)NCCNCc1cc(C)c(OCc2cccc(-c3cccc4c3CCN4CCCN3CCC(O)CC3)c2C)cc1OCc1cccc(C#N)c1` [A20], the “ICB Assay %RLUmax” value [1] is given as 55%, the EC50 [1] is given as 430 nM and the IC50 (hPD-1/hPD-L1 complex [2]; [6]) is given as 17 nM.
For “atezolizumab: therapeutic anti-PD-L1 antibody”, the “PD-L1 Dimerization” value (human PD-L1 [3]) is given as “No”, the “blockade of human PD-L1” value (hPD-L1) is given as “blocks both human and mouse PD-L1” and the “ICB Assay %RLUmax” value [1] is given as 100%. The EC50 [1] was 0.14 nM and the “blockade of mouse PD-L1” value (mPD-L1) was “blocks both human and mouse PD-L1”.
For `C[C@@H](O)[C@H](NC(=O)N[C@@H](CC(N)=O)c1nc([C@@H](N)CO)no1)C(=O)O` [CA-170], the “direct binding to PD-1” value (PD-1) is listed as “direct binder of neither human PD-L1 nor PD-1”, the “activation of mouse T cells” value (mouse T cells) is listed as “increase the activation of human PBMCs and mouse T cells” and the “activity in PD-1/PD-L1-focused cell-based ICB assay” value [1] is listed as “inactive”. For the same molecule, the “dissociation of the PD-1/PD-L1 complex” value (PD-1/PD-L1 complex) was “unable to dissociate the PD-1/PD-L1 complex”, the “activation of human PBMCs” value (human PBMCs) was “increase the activation of human PBMCs” and the “direct binding to human PD-L1” value (human PD-L1 [4]) was “direct binder of neither human PD-L1 nor PD-1”.
For `COc1nc(OCc2cccc(-c3ccccc3)c2C)ccc1CNCCNC(C)=O` [BMS-202], the “Target Specificity mPD-L1” value (mPD-L1) is listed as “No”.
In the case of `COc1cc(-c2cccc(-c3ccc4c(c3)OCCO4)c2Cl)ccc1CNC(CO)(CO)CO` [8j], the “ICB Assay %RLUmax” value [1] is given as 87%, the EC50 [1] is given as 1030 nM and the “Target Specificity mPD-L1” value (mPD-L1) is given as “No”. The IC50 (hPD-1/hPD-L1 complex [2]; [7]) was under 1 nM.
For `O=C(O)[C@H](CO)NCc1cc(Br)c(OCc2cccc(-c3ccccc3)c2Br)cc1OCc1ccc2nonc2c1` [L7], the “ICB Assay %RLUmax” value [1] is listed as 75% and the EC50 [1] is listed as 375 nM.
In the case of `O=C(O)[C@H](CO)NCc1ccc2c(Nc3cccc(-c4ccc5c(c4)OCCO5)c3Cl)nsc2c1` [CH20], the “ICB Assay %RLUmax” value [1] is listed as 93%, the EC50 [1] is listed as 5600 nM and the IC50 (hPD-1/hPD-L1 complex [2]; [6]) is listed as 8.5 nM.
For “durvalumab: therapeutic anti-PD-L1 antibody”, the “PD-L1 Dimerization” value (human PD-L1 [3]) is listed as “No”, the “blockade of human PD-L1” value (hPD-L1) is listed as “blocks the human PD-L1” and the “ICB Assay %RLUmax” value [1] is listed as 100%. For the same molecule, the EC50 [1] was 0.23 nM, the “blockade of mouse PD-L1” value (mPD-L1) was “not the mouse PD-L1” and the “Target Specificity mPD-L1” value (mPD-L1) was “No”. For the same molecule, the IC50 (hPD-1/hPD-L1 complex [5]; read-out: HTRF IC50) was 0.0966 nM and the IC50 (hPD-1/hPD-L1 complex [5]; [7]) was 0.1 nM.
In the case of `CC(=O)NCCNCc1cc(C)c(OCc2cccc(-c3cccc(COc4cc(OCc5cccc(C#N)c5)c(CNCCNC(C)=O)cc4C)c3C)c2C)cc1OCc1cccc(C#N)c1` [2b], the “ICB Assay %RLUmax” value [1] is given as 93%, the EC50 [1] is given as 763 nM and the “Target Specificity mPD-L1” value (mPD-L1) is given as “No”.
In the case of `O=C(O)[C@@H]1CCCCN1Cc1ccc(OCc2cccc(-c3ccccc3)c2Br)c(Br)c1` [2k], the “ICB Assay %RLUmax” value [1] is given as 87%, the EC50 [1] is given as 6630 nM and the “Target Specificity mPD-L1” value (mPD-L1) is given as “No”. For the same molecule, the IC50 (hPD-1/hPD-L1 complex [2]; [7]) was 14.9 nM.
For `Cc1c(COc2cc(OCc3cccc(C#N)c3)c(CN3C[C@H](O)C[C@@H]3C(=O)O)cc2Cl)cccc1-c1ccc2c(c1)OCCO2` [BMS-1166], the “Target Specificity mPD-L1” value (mPD-L1) is given as “No”.
